Measurements from patent publication US20090075937A1, “LHRH ANTAGONISTS FOR THE TREATMENT OF LOWER URINARY TRACT SYMPTOMS” (AETERNA ZENTARIS GmbH, priority 2007, published 2009).

Tests used:
study subjects [1] = experiment: Frequency of emptying: how often the study subjects had to urinate a second time within a 2 hour test period; assay type: in vivo, human
Text: (§1) The results shown are percentage variations from baseline at the beginning of the study (week 0).
The results shown are mean values, how often the study subjects had to urinate a second time.

study subjects [2] = experiment: IPSS irritative subscore (sum of nocturia, frequency of emptying and urgency to urinate); assay type: in vivo, human; conditions: for IPSS irritative subscore (nocturia, frequency of emptying, urgency to urinate): percentage variation from baseline
Text: as §1

[3] = tested on: testosterone blood levels; experiment: Median testosterone blood levels / chemical (hormonal) castration; conditions: blood level
Method: Preferably, chemical (hormonal) castration is a testosterone castration and refers to a testosterone blood level of equal or below 1.2 ng/mL, preferably 0.5 ng/mL.
Study subjects were treated with Cetrorelix pamoate with the following doses according to the following administration schemes: • 60 mg Cetrorelix pamaote administered at week 0 and 30 mg Cetrorelix pamaote administered at week 2 (treatment period) followed by up to 5 months of no treatment (treatment-free period) • 60 mg Cetrorelix pamaote administered at week 0 and 60 mg Cetrorelix pamaote administered at week 2 (treatment period) followed by up to 5 months of no treatment (treatment-free period)
Study subjects were treated with Cetrorelix acetate with the following doses according to the following administration schemes: • 5 mg Cetrorelix acetate administered at week 0, 1, 2 and 3 (total monthly dose of 20 mg) (treatment period) followed by up to 4 months of no treatment (treatment-free period) • 10 mg Cetrorelix acetate administered at week 0 and 10 mg Cetrorelix acetate administered at week 2 (treatment period) followed by up to 4 months of no treatment (treatment-free period) • 10 mg Cetrorelix acetate administered at week 0, 1, 2 and 3 (total monthly dose of 40 mg) (treatment period) followed by up to 4 months of no treatment (treatment-free period)
Study subjects were treated with Ozarelix with the following doses according to the following administration schemes: • 15 mg Ozarelix administered at week 0 and 15 mg Ozarelix administered at week 2 (treatment period) followed by up to 4 months of no treatment (treatment-free period)

study subjects [4] = experiment: Nocturia: how often the study subjects got up during the night in order to urinate; assay type: in vivo, human
Text: as §1
The results shown are mean values, how often the study subjects had to get up.

[5] = 60+30 mg and 60+60 mg schemes, largest difference over weeks 4-24
[6] = 60 + 30: 60 mg week 0, 30 mg week 2, Week 0
[7] = 60 + 30: 60 mg week 0, 30 mg week 2, Week 4
[8] = 60 + 30: 60 mg week 0, 30 mg week 2, Week 8
[9] = 60 + 30: 60 mg week 0, 30 mg week 2, Week 12
[10] = 60 + 30: 60 mg week 0, 30 mg week 2, Week 16
[11] = 60 + 30: 60 mg week 0, 30 mg week 2, Week 20
[12] = 60 + 30: 60 mg week 0, 30 mg week 2, Week 24
[13] = 60 + 60: 60 mg week 0, 60 mg week 2, Week 0
[14] = 60 + 60: 60 mg week 0, 60 mg week 2, Week 4
[15] = 60 + 60: 60 mg week 0, 60 mg week 2, Week 8
[16] = 60 + 60: 60 mg week 0, 60 mg week 2, Week 12
[17] = 60 + 60: 60 mg week 0, 60 mg week 2, Week 16
[18] = 60 + 60: 60 mg week 0, 60 mg week 2, Week 20
[19] = 60 + 60: 60 mg week 0, 60 mg week 2, Week 24

Question: Which “further decrease in frequency (of emptying) compared to placebo” value (study subjects [1]; [5]) does the source give for Cetrorelix pamoate here?
Answer: Its value is “up to 29%”.

Question: What about the “Frequency of emptying (percentage variation from baseline)” value (study subjects [1]; [6]) of the same substance?
Answer: Its value is 0%.

Question: And the “Frequency of emptying (percentage variation from baseline)” value (study subjects [1]; [7])?
Answer: Its value is −9%.

Question: What about the “Frequency of emptying (percentage variation from baseline)” value (study subjects [1]; [8]) of the same substance?
Answer: The value was −19%.

Question: What about the “Frequency of emptying (percentage variation from baseline)” value (study subjects [1]; [9]) of the same substance?
Answer: Its value is −20%.

Question: What about the “Frequency of emptying (percentage variation from baseline)” value (study subjects [1]; [10]) of the same substance?
Answer: Its value is −26%.

Question: What about the “Frequency of emptying (percentage variation from baseline)” value (study subjects [1]; [11]) of the same substance?
Answer: Its value is −27%.

Question: And the “Frequency of emptying (percentage variation from baseline)” value (study subjects [1]; [12])?
Answer: The value was −31%.

Question: What about the “Frequency of emptying (percentage variation from baseline)” value (study subjects [1]; [13]) of the same substance?
Answer: The value was 0%.

Question: And the “Frequency of emptying (percentage variation from baseline)” value (study subjects [1]; [14])?
Answer: The value was −16%.

Question: What about the “Frequency of emptying (percentage variation from baseline)” value (study subjects [1]; [15]) of the same substance?
Answer: The value was −25%.

Question: What about the “Frequency of emptying (percentage variation from baseline)” value (study subjects [1]; [16]) of the same substance?
Answer: Its value is −24%.

Question: And the “Frequency of emptying (percentage variation from baseline)” value (study subjects [1]; [17])?
Answer: Its value is −29%.

Question: What about the “Frequency of emptying (percentage variation from baseline)” value (study subjects [1]; [18]) of the same substance?
Answer: The value was −25%.

Question: What about the “Frequency of emptying (percentage variation from baseline)” value (study subjects [1]; [19]) of the same substance?
Answer: Its value is −34%.

Question: And the “further decrease in IPSS irritative subscore compared to placebo” value (study subjects [2]; [5])?
Answer: Its value is “up to 30%”.

Question: What about the “IPSS irritative subscore (nocturia, frequency of emptying, urgency to urinate)” value (study subjects [2]; [6]) of the same substance?
Answer: The value was 0%.

Question: What about the “IPSS irritative subscore (nocturia, frequency of emptying, urgency to urinate)” value (study subjects [2]; [7]) of the same substance?
Answer: The value was −14.8%.

Question: What about the “IPSS irritative subscore (nocturia, frequency of emptying, urgency to urinate)” value (study subjects [2]; [8]) of the same substance?
Answer: Its value is −33.3%.

Question: What about the “IPSS irritative subscore (nocturia, frequency of emptying, urgency to urinate)” value (study subjects [2]; [9]) of the same substance?
Answer: Its value is −29.3%.

Question: What about the “IPSS irritative subscore (nocturia, frequency of emptying, urgency to urinate)” value (study subjects [2]; [10]) of the same substance?
Answer: The value was −33.3%.

Question: What about the “IPSS irritative subscore (nocturia, frequency of emptying, urgency to urinate)” value (study subjects [2]; [11]) of the same substance?
Answer: The value was −33.3%.

Question: What about the “IPSS irritative subscore (nocturia, frequency of emptying, urgency to urinate)” value (study subjects [2]; [12]) of the same substance?
Answer: The value was −38%.

Question: And the “IPSS irritative subscore (nocturia, frequency of emptying, urgency to urinate)” value (study subjects [2]; [13])?
Answer: Its value is 0%.

Question: And the “IPSS irritative subscore (nocturia, frequency of emptying, urgency to urinate)” value (study subjects [2]; [14])?
Answer: The value was −16.7%.

Question: What about the “IPSS irritative subscore (nocturia, frequency of emptying, urgency to urinate)” value (study subjects [2]; [15]) of the same substance?
Answer: Its value is −25%.

Question: What about the “IPSS irritative subscore (nocturia, frequency of emptying, urgency to urinate)” value (study subjects [2]; [16]) of the same substance?
Answer: The value was −25%.

Question: What about the “IPSS irritative subscore (nocturia, frequency of emptying, urgency to urinate)” value (study subjects [2]; [17]) of the same substance?
Answer: The value was −25%.

Question: And the “IPSS irritative subscore (nocturia, frequency of emptying, urgency to urinate)” value (study subjects [2]; [18])?
Answer: The value was −27.6%.

Question: What about the “IPSS irritative subscore (nocturia, frequency of emptying, urgency to urinate)” value (study subjects [2]; [19]) of the same substance?
Answer: Its value is −40%.

Question: And the “Testosterone [ng/mL] (median)” value [3, 6]?
Answer: Its value is 3.96 ng/mL.

Question: What about the “Testosterone [ng/mL] (median)” value [3, 7] of the same substance?
Answer: The value was 2.59 ng/mL.

Question: And the “Testosterone [ng/mL] (median)” value [3, 8]?
Answer: Its value is 4.01 ng/mL.

Question: And the “Testosterone [ng/mL] (median)” value [3, 9]?
Answer: Its value is 4.10 ng/mL.

Question: And the “Testosterone [ng/mL] (median)” value [3, 10]?
Answer: Its value is 3.96 ng/mL.

Question: And the “Testosterone [ng/mL] (median)” value [3, 11]?
Answer: The value was 4.12 ng/mL.

Question: What about the “Testosterone [ng/mL] (median)” value [3, 12] of the same substance?
Answer: The value was 4.30 ng/mL.

Question: And the “Testosterone [ng/mL] (median)” value [3, 13]?
Answer: Its value is 3.71 ng/mL.

Question: And the “Testosterone [ng/mL] (median)” value [3, 14]?
Answer: The value was 2.19 ng/mL.

Question: What about the “Testosterone [ng/mL] (median)” value [3, 15] of the same substance?
Answer: The value was 3.70 ng/mL.

Question: And the “Testosterone [ng/mL] (median)” value [3, 16]?
Answer: Its value is 3.73 ng/mL.

Question: What about the “further decrease in nocturia frequency compared to placebo” value (study subjects [4]; [5]) of the same substance?
Answer: Its value is “up to 11%”.

Question: What about the “Nocturia (percentage variation from baseline)” value (study subjects [4]; [6]) of the same substance?
Answer: Its value is 0%.

Question: What about the “Nocturia (percentage variation from baseline)” value (study subjects [4]; [7]) of the same substance?
Answer: Its value is −14%.

Question: What about the “Nocturia (percentage variation from baseline)” value (study subjects [4]; [8]) of the same substance?
Answer: The value was −26%.

Question: And the “Nocturia (percentage variation from baseline)” value (study subjects [4]; [9])?
Answer: The value was −27%.

Question: And the “Nocturia (percentage variation from baseline)” value (study subjects [4]; [10])?
Answer: Its value is −27%.

Question: What about the “Nocturia (percentage variation from baseline)” value (study subjects [4]; [11]) of the same substance?
Answer: The value was −33%.

Question: What about the “Nocturia (percentage variation from baseline)” value (study subjects [4]; [12]) of the same substance?
Answer: The value was −26%.

Question: What about the “Nocturia (percentage variation from baseline)” value (study subjects [4]; [13]) of the same substance?
Answer: Its value is 0%.

Question: What about the “Nocturia (percentage variation from baseline)” value (study subjects [4]; [14]) of the same substance?
Answer: Its value is −17%.

Question: And the “Nocturia (percentage variation from baseline)” value (study subjects [4]; [15])?
Answer: Its value is −26%.

Question: And the “Nocturia (percentage variation from baseline)” value (study subjects [4]; [16])?
Answer: The value was −30%.

Question: And the “Nocturia (percentage variation from baseline)” value (study subjects [4]; [17])?
Answer: The value was −25%.

Question: And the “Nocturia (percentage variation from baseline)” value (study subjects [4]; [18])?
Answer: The value was −27%.

Question: And the “Nocturia (percentage variation from baseline)” value (study subjects [4]; [19])?
Answer: Its value is −29%.
